From US20250082657A1, “CONJUGATES OF CHEMOTHERAPY AGENTS AND TISSUE-BINDING SMALL MOLECULES, COMPOSITIONS AND METHODS THEREOF” (CANWELL BIOTECH LIMITED, priority 2022, published 2025)
pIC50: −log10 of the molar value. Like-named read-outs stand apart in the source and are kept apart here.

What was measured:
U87MG = experiment: Cellular IC50 in U87MG tumor cell line (CellTiter-Glo); assay type: cell-based; settings: U87MG cells, 72 h incubation
Experimental: (§1) The cellular inhibition was determined in three assays: U87MG, A549 and MC38. Cells were recovered and cultured in appropriate medium supplemented with 10% fetal bovine serum and 100 U/mL penicillin G sodium, and maintained in cell incubators (37° C., 5% CO2). Before testing, cells in culture dishes were rinsed with Phosphate Buffered Solution, detached with Trypsin. Dilute and adjust the cell number with the culture medium, add the cell suspension to the 96 well cell plate. Cells were maintained in incubators overnight. In T0 control plate, cells were added with 100 μL CellTiter-Glo reagent, balance at room temperature for 10 minutes, and read the chemiluminescence value with envision.
(§2) In the testing plate, compounds were dissolved with corresponding solvent and diluted gradiently. Diluted compound solution was added to a 96 well plate with cells. After incubation of 72 h, cells were added with 100 μL CellTiter-Glo reagent, balanced at room temperature for 10 minutes, and read the chemiluminescence value with envision. IC50 was calculated using the GraphPad Prism software package (Prism 6 for Windows, Version 6.0, GraphPad Software Inc., San Diego, CA).

A549 = experiment: Cellular IC50 in A549 tumor cell line (CellTiter-Glo); assay type: cell-based; settings: A549 cells, 72 h incubation
Experimental: as §1, §2

MC38 = experiment: Cellular IC50 in MC38 tumor cell line (CellTiter-Glo); assay type: cell-based; settings: 72 h incubation
Experimental: as §1, §2

[1] = male, CD-1, mouse, in vivo
Experimental: (§3) Pharmacokinetic parameters were determined in male CD-1 mice (Shanghai Jihui Laboratory Animal Care Co., Ltd., 6-8 weeks old). Animals were maintained under a 12 hr light/dark cycle. Animals had free access to food and water during the study.
(§4) For intravenous, compounds were formulated as a solution (in 5% DMSO+10% Solutol HS15+85% (20% HP-β-CD in water)) in 5 mL/kg dosing volume and administered via tail vein. For subcutaneous, compounds were formulated as a solution (in 5% DMSO+10% Solutol HS15+85% (20% HP-β-CD in water)) in 10 mL/kg dosing volume or (in 0.5% MC+1% Pluronic F68 in water) in 50 μL/mouse dosing volume and administered via subcutaneous puncture.
(§5) Semi-serial blood samples (about 110 μL) were taken from animal at 0.083, 0.25, 0.5, 1, 2, 4, 8 and 24 hr for IV group and 0.5, 2, 4, 8, 24, 48 and 96 hr for SC group. Samples were held on ice for no longer than 15 minutes before centrifugation (2000 g, 5 min, 4° C.) within 15 minutes post sampling. Plasma was snap frozen in dry ice and then transferred into −70° C. freezer for long term storage until LC-MS/MS analysis.
(§6) Tissue collection for SC group at 0.5, 2, 4, 8, 24, 48 and 96 hr. After animals were anesthetized and exsanguinated, tissue samples (including muscle and skin) were collected and weighted, and then snap frozen in liquid nitrogen and further stored at −70° C. for long term storage until LC-MS/MS analysis. Tissue samples were homogenized under freezing conditions.
(§7) PK parameters were generated from LC-MS/MS data using Phoenix WinNonlin 8.2 software.

physchem = settings: buffer, pH 7.4
Experimental: (§8) Test compounds spiking solution: 1 mM test compounds spiking solution A: Add 10 μL of 10 mM test compounds stock solution to 90 μL DMSO. • 2. Add 396 μL of buffer into the tubes designated for different time points. Pre-warm the samples at 37° C. for 10 min. • 3. Add 4 μL of spiking solution A into the wells designated as 0 min (or 15, 45, 90, 120 min) containing 396 μL of buffer, then start timing count down. • 4. At each time point, add 1200 μL ACN containing IS into the tubes. • 5. Samples are centrifuged at 10,000 rpm for 5 min, then 100 μL of supernatant are ready for LC-MS/MS analysis.

[2] = Chemical stability in PBS (pH 7.4); settings: PBS buffer
Experimental: as §8

[3] = buffer
Experimental: as §8

in vivo = settings: male, CD-1, mouse, sc, 5 mg/kg
Experimental: as §3, §4, §5, §6, §7

[4] = Pharmacokinetics in male CD-1 mice (plasma and tissue, LC-MS/MS); settings: CD-1, mouse
Experimental: as §3, §4, §5, §6, §7

[5] = Mus musculus, MC-38, MC38 cells

In the case of `CCc1c2c(nc3ccc(O)cc13)-c1cc3c(c(=O)n1C2)COC(=O)[C@]3(O)CC` [Compound 1-1, SN-38, reference compound], the pIC50 (U87MG) was 7.87, the pIC50 (A549) was 7.00 and the pIC50 (MC38; MC38 cells) was 7.67.

In the case of `CCc1c2c(nc3ccc(OC(=O)CCCc4ccc(I)cc4)cc13)-c1cc3c(c(=O)n1C2)COC(=O)[C@]3(O)CC` [Compound 1], the Tissue/Plasma ratio ([1]; 3 mg/kg) was 171.8, the “T½” value ([1]; 3 mg/kg) was 10.3 h and the half-life at 10 µM (physchem) was 19.7 h.

Work on `CCc1c2c(nc3ccc(OC(=O)C(C)CCc4ccc(I)cc4)cc13)-c1cc3c(c(=O)n1C2)COC(=O)[C@]3(O)CC` (stereo partly shown) [Compound 2] yielded a half-life at 10 µM (physchem) of 23.1 h.

Work on `CCc1c2c(nc3ccc(OC(=O)NCCc4ccc(I)cc4)cc13)-c1cc3c(c(=O)n1C2)COC(=O)[C@]3(O)CC` [Compound 3, (S)-4,11-diethyl-4-hydroxy-3,14-dioxo-3,4,12,14-tetrahydro-1H-pyrano [3′,4′:6,7]indolizino[1,2-b]quinolin-9-yl(4-iodophenethyl)carbamate] yielded a half-life at 10 µM [2] of 0.85 h.

`CCc1c2c(nc3ccc(OC(=O)N(C)CCc4ccc(I)cc4)cc13)-c1cc3c(c(=O)n1C2)COC(=O)[C@]3(O)CC` [Compound 4, (S)-4,11-diethyl-4-hydroxy-3,14-dioxo-3,4,12,14-tetrahydro-1H-pyrano[3′,4′:6,7]indolizino[1,2-b]quinolin-9-yl(4-iodophenethyl)(methyl)carbamate] showed a half-life at 10 µM [2] of 3.58 h.

With `CCc1c2c(nc3ccc(OC(=O)[C@@H](C)c4ccc(CC(C)C)cc4)cc13)-c1cc3c(c(=O)n1C2)COC(=O)[C@]3(O)CC` [Compound 8, (S)-4,11-diethyl-4-hydroxy-3,14-dioxo-3,4,12,14-tetrahydro-1H-pyrano [3′,4′:6,7]indolizino[1,2-b]quinolin-9-yl(S)-2-(4-isobutylphenyl)propanoate] the pIC50 (U87MG; Homo sapiens, U-87 MG) was 7.87, the pIC50 (A549; Homo sapiens) was 6.68 and the pIC50 (MC38; [5]) was 7.64. The “Stability (PBS, pH 7.4) T½ (min)” value [3] was “∞”, the “T½” value ([1]; sc, 5 mg/kg) was over 96 h and the AUC(0-t) (in vivo) was 11800 µg·h/mL. For the same compound, the half-life (in vivo) was 44.1 h.

For `CC(C)Cc1ccc([C@H](C)C(=O)O)cc1` [Compound 8-1], the pIC50 (MC38; [5]) was under 5.00.

`CC(C)C[C@H](NC(=O)[C@H](Cc1ccccc1)NC(=O)c1cnccn1)B(O)O` [Compound 9-7, Valcade, reference compound] showed a pIC50 (U87MG; Homo sapiens, U-87 MG) of 8.16, a pIC50 (A549; Homo sapiens) of 8.03 and a pIC50 (MC38; [5]) of 7.79.

`CC(C)Cc1ccc([C@H](C)C(=O)NCCCC[N+]23CC(=O)O[B-]2([C@H](CC(C)C)NC(=O)[C@H](Cc2ccccc2)NC(=O)c2cnccn2)OC(=O)C3)cc1` (stereo partly drawn) [Compound 16, N-((S)-1-(((R)-1-(6-(4-((S)-2-(4-isobutylphenyl)propanamido)butyl)-4,8-dioxo-1,3,6,2-dioxazaborocan-2-yl)-3-methylbutyl)amino)-1-oxo-3-phenylpropan-2-yl)pyrazine-2-carboxamide] gave a pIC50 (U87MG; Homo sapiens, U-87 MG) of 8.14, a pIC50 (A549; Homo sapiens) of 7.97 and a pIC50 (MC38; [5]) of 7.80. It also gave a half-life ([4]; in vivo, sc, 1 mg/kg) of 93.2 h, an AUC(0-t) ([4]; plasma, sc, 1 mg/kg) of 0.165 µg·h/mL and a Kp ([4]; tissue (muscle or skin, not specified) / plasma, subcutaneous, 1 mg/kg) of 365. For the same compound, the AUC(0-t) ([4]; tissue (muscle or skin, not specified), sc, 1 mg/kg) was 60.3 µg·h/mL.

Work on `O=C(CCCc1ccc(I)cc1)OCn1cc(F)c(=O)[nH]c1=O` [Compound 28, (5-fluoro-2,4-dioxo-3,4-dihydropyrimidin-1(2H)-yl)methyl 4-(4-iodophenyl) butanoate] yielded a half-life at 10 µM [2] of 8.4 h, an AUC(0-t) ([4]; tissue (muscle or skin, not specified which), sc, 10 mg/kg) of 37.6 µg·h/mL and a half-life ([4]; tissue (muscle or skin, not specified which), subcutaneous, 10 mg/kg) of 11.3 h.

For `CC(=O)O[C@@]12CO[C@@H]1C[C@H](O)[C@@]1(C)C(=O)[C@H](O)C3=C(C)[C@@H](OC(=O)[C@H](OC(=O)CCCc4ccc(I)cc4)[C@@H](NC(=O)OC(C)(C)C)c4ccccc4)C[C@@](O)([C@@H](OC(=O)c4ccccc4)[C@H]21)C3(C)C` [Compound 30, (2aR,4S,4aS,6R,9S,11 S,12S,12aR,12bS)-12b-acetoxy-9-(((2R,3S)-3-((tert-butoxycarbonyl)amino)-2-((4-(4-iodophenyl)butanoyl)oxy)-3-phenylpropanoyl)oxy)-4,6,11-trihydroxy-4a,8,13,13-tetramethyl-5-oxo-2a,3,4,4a,5,6,9,10,11,12,12a,12b-dodecahydro-1H-7,11-methanocyclodeca[3,4]benzo[1,2-b]oxet-12-yl benzoate], the half-life (physchem) was 13.4 h.
